ChEMBL document CHEMBL5042473 (J Med Chem, 2022)

Experiments:
[1] = Metabolic stability in human liver microsomes assessed as parent compound remaining incubated for 120 mins; assay type: ADME, Microsome; settings: read-out: Stability
hERG = hERG (Homo sapiens, UniProt Q12809); assay: Inhibition of hERG at 10 uM by fluorimetric analysis relative to control; assay type: toxicity
CYP2C19 = CYP2C19 (Homo sapiens, UniProt P33261); assay: Inhibition of human recombinant CYP2C19 at 10 uM relative to control; assay type: ADME
Chain of CYP2C19 (P33261 whole entry): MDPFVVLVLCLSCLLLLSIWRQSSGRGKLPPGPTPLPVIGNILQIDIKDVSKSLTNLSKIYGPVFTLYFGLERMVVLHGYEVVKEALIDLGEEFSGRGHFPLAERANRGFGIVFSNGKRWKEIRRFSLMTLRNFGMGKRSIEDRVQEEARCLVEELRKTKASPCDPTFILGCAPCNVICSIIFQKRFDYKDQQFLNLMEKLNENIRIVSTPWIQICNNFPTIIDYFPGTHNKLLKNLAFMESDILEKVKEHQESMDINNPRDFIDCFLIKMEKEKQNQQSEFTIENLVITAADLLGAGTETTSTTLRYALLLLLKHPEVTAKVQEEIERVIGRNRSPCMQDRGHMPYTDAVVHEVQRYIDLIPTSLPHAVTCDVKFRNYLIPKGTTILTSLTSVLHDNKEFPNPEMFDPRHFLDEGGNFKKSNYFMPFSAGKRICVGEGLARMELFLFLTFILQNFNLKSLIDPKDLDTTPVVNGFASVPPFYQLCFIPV

[2] = Cytotoxicity against Balb/c mouse splenocytes assessed as metabolic activity at 100 nM incubated for 24 hrs by MTT assay relative to LPS-stimulated splenocytes; assay type: toxicity, cell-based, Splenocyte; settings: read-out: Activity
Splenocyte [3] = assay: Antiinflammatory activity against LPS-stimulated Balb/c mouse splenocytes assessed as reduction in IL-6 at 10 nM incubated for 24 hrs by ELISA based method; assay type: functional; set-up: scale not given: the % may be the effect or the level left
Splenocyte [4] = assay: Antiinflammatory activity against LPS-stimulated Balb/c mouse splenocytes assessed as reduction in IL-6 at 100 nM incubated for 24 hrs by ELISA based method; assay type: functional; set-up: scale not given: the % may be the effect or the level left
[5] = Drug concentration in mouse C57BL/6 kidney at 0.4 mg/kg,po measured at 4 hrs by LC-MS/MS analysis; assay type: ADME, organism-based; settings: C57BL/6, mouse, read-out: Drug uptake
[6] = Ratio of drug concentration in mouse C57BL/6 brain to plasma at 0.4 mg/kg, po measured at 2 hrs by LC-MS/MS analysis; assay type: ADME, organism-based; settings: C57BL/6, mouse, brain and plasma
[7] = Drug concentration in mouse C57BL/6 liver at 0.4 mg/kg,po measured at 4 hrs by LC-MS/MS analysis; assay type: ADME, organism-based; settings: C57BL/6, mouse, read-out: Drug uptake
[8] = Drug concentration in mouse C57BL/6 heart at 0.4 mg/kg,po measured at 4 hrs by LC-MS/MS analysis; assay type: ADME, organism-based; settings: C57BL/6, mouse, read-out: Drug uptake
CYP1A2 = target: T1, CYP1A2 (Homo sapiens, UniProt P05177); assay: Inhibition of human recombinant CYP1A2 at 10 uM relative to control; assay type: ADME
T1 sequence (P05177 whole entry): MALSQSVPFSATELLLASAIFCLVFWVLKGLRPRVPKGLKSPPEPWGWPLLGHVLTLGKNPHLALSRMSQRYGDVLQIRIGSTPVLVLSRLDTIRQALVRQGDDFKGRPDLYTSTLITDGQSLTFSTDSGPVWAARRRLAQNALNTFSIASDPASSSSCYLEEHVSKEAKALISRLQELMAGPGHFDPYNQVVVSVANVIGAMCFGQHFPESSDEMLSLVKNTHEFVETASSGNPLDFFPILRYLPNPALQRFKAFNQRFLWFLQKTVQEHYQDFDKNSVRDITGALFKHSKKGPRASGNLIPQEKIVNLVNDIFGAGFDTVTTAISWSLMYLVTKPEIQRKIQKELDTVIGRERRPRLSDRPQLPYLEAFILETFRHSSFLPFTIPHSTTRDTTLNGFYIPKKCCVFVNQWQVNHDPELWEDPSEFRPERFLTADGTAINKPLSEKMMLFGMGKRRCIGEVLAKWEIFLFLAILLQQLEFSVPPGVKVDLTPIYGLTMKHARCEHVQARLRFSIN

Splenocyte [9] = assay: Cytotoxicity against Balb/c mouse splenocytes assessed as metabolic activity at 1 to 10 nM incubated for 24 hrs by MTT assay; assay type: toxicity, cell-based; settings: 0.01 µM, dose 1-10 nM
Blood [10] = assay: Antiinflammatory activity against LPS-stimulated C57BL/6 mouse whole blood assessed as reduction in TNF-alpha at 1 nM incubated for 24 hrs by ELISA based method; assay type: functional; set-up: scale not given: the % may be the effect or the level left
[11] = Drug concentration in mouse C57BL/6 brain at 0.4 mg/kg,po measured at 4 hrs by LC-MS/MS analysis; assay type: ADME, organism-based; settings: C57BL/6, mouse, read-out: Drug uptake
Splenocyte [12] = assay: Antiinflammatory activity against LPS-stimulated Balb/c mouse splenocytes assessed as reduction in IL-6 at 1 nM incubated for 24 hrs by ELISA based method; assay type: functional; set-up: scale not given: the % may be the effect or the level left
[13] = target: Mitogen-activated protein kinase 14 (Homo sapiens, UniProt Q16539); assay: Inhibition of human p38 MAPK alpha incubated for 1 hr by photometric method
Chain of Mitogen-activated protein kinase 14 (Q16539 whole entry): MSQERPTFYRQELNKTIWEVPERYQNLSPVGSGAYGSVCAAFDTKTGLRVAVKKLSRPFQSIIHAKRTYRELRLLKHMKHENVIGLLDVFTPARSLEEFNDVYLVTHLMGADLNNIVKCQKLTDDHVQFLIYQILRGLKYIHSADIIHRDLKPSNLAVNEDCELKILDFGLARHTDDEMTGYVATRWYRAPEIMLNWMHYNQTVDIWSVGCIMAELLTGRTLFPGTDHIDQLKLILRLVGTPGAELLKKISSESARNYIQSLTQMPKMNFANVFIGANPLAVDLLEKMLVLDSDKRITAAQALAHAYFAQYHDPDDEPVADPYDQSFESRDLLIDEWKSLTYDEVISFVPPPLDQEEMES

CYP2D6 = CYP2D6 (Homo sapiens, UniProt P10635); assay: Inhibition of human recombinant CYP2D6 at 10 uM relative to control; assay type: ADME
Chain of CYP2D6 (P10635 whole entry): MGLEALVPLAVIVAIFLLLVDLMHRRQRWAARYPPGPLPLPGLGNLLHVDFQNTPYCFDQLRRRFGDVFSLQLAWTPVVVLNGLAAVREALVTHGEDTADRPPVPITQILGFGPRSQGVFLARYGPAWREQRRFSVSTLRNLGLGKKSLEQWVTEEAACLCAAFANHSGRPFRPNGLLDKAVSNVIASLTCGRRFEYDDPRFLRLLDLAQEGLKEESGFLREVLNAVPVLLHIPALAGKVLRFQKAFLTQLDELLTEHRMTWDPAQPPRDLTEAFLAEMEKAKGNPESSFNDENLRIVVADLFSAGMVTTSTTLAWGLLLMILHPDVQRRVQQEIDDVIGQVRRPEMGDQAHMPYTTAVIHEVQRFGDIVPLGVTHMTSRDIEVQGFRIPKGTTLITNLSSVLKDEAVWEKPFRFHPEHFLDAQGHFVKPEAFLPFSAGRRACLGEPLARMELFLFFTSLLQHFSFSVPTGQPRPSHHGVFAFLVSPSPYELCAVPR

CYP2C9 = CYP2C9 (Homo sapiens, UniProt P11712); assay: Inhibition of human recombinant CYP2C9 at 10 uM relative to control; assay type: ADME
Chain of CYP2C9 (P11712 whole entry): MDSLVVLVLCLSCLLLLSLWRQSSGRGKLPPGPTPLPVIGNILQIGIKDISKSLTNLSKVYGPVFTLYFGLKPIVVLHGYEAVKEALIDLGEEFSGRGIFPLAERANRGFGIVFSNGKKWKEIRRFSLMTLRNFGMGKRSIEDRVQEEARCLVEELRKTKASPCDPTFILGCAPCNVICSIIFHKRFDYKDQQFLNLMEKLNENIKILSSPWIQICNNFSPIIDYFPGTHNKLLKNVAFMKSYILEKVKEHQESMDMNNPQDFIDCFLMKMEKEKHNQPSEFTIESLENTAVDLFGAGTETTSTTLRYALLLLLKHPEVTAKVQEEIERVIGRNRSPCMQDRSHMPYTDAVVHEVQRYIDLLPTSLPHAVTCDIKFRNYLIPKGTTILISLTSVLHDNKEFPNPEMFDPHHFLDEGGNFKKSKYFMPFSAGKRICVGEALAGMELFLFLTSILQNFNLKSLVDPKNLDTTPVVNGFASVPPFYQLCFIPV

CYP3A4 = CYP3A4 (Homo sapiens, UniProt P08684); assay: Inhibition of human recombinant CYP3A4 at 10 uM relative to control; assay type: ADME
Chain of CYP3A4 (P08684 whole entry): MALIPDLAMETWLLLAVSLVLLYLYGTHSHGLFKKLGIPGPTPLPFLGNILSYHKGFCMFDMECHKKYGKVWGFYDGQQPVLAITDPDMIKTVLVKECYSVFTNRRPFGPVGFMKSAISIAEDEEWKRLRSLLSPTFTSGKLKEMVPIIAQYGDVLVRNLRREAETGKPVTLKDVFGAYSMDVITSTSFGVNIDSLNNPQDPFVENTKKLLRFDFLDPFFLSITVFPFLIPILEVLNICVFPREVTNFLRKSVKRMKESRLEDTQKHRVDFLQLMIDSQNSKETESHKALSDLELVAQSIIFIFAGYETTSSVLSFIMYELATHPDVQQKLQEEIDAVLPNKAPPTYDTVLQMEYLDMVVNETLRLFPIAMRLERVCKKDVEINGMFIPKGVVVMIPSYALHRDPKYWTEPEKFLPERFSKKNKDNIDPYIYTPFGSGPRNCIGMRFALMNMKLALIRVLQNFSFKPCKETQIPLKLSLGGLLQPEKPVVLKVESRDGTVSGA

[14] = Drug concentration in mouse C57BL/6 brain at 0.4 mg/kg,po measured at 2 hrs by LC-MS/MS analysis; assay type: ADME, organism-based; settings: C57BL/6, mouse, read-out: Drug uptake
Blood [15] = assay: Antiinflammatory activity against LPS-stimulated C57BL/6 mouse whole blood assessed as reduction in IL-6 incubated for 24 hrs by ELISA based method; assay type: functional; set-up: scale not given: the % may be the effect or the level left; settings: dose 1-100 nM, at 1 to 100 nM
Blood [16] = assay: Reduction in LPS-stimulated TNF-alpha release in human whole blood incubated for 15 mins by ELISA based method; settings: 0.25 h
Blood [17] = assay: Antiinflammatory activity against LPS-stimulated C57BL/6 mouse whole blood assessed as reduction in TNF-alpha at 10 nM incubated for 24 hrs by ELISA based method; assay type: functional; settings: C57BL/6, Blood

Chain of hERG (Q12809 whole entry): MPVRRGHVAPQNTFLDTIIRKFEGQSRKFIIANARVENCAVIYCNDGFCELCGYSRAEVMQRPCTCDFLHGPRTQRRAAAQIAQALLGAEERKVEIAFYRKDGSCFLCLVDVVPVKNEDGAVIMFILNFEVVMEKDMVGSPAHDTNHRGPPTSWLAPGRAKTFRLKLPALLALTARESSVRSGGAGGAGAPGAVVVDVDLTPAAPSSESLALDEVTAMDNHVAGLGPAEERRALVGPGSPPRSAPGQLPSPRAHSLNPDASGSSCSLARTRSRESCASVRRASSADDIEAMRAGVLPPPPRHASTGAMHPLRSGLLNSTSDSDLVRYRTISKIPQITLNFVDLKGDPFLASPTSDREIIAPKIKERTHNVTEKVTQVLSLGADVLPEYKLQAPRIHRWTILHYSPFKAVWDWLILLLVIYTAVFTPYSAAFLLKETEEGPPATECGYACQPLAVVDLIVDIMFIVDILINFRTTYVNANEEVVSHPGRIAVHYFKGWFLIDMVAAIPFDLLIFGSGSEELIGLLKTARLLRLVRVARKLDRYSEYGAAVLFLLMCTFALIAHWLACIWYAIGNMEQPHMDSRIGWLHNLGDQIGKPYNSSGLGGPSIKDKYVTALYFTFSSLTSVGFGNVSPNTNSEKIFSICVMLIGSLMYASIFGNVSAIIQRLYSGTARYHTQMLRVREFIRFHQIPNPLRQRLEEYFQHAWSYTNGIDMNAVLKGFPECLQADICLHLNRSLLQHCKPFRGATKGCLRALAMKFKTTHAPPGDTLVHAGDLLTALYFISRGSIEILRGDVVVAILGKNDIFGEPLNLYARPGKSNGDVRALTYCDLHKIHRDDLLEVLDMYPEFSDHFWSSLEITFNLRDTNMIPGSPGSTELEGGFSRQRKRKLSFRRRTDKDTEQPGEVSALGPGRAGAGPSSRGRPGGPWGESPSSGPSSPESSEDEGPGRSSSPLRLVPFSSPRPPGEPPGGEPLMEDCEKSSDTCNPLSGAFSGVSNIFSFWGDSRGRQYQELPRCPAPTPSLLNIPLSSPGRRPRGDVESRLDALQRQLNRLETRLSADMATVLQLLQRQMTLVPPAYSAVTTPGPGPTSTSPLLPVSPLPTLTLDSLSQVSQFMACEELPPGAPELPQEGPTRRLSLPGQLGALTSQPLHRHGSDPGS

| SMILES | inhibition at 10 µM (hERG) | inhibition at 10 µM (CYP2C19) | viability at 24 h, 0.1 µM [2] | inhibition at 10 µM (CYP1A2) | Activity (Splenocyte [9]) | IC50 [13] | inhibition at 10 µM (CYP2D6) | inhibition at 10 µM (CYP2C9) | inhibition at 10 µM (CYP3A4) | other results |
| --- | --- | --- | --- | --- | --- | --- | --- | --- | --- | --- |
| Nc1ccccc1Nc1ccc2c(c1)CCc1ccc(C(=O)NCCC(=O)O)cc1C2=O | 22.5% | 21.8% | 66% | 28.1% | Non-Toxic | 0.98 nM | 11.4% | 13.1% | 4.1% | remaining at 2 h [1]: 99%; Activity (Splenocyte [3]): 118%; Activity (Splenocyte [4]): 29%; concentration at 4 h [5]: 380 nM; Kp at 2 h [6]: 4.7; concentration at 4 h [7]: 330 nM; concentration at 4 h [8]: 120 nM; Activity (Blood [10]): 5%; concentration at 4 h [11]: 540 nM; Activity (Splenocyte [12]): 138%; concentration at 2 h [14]: 590 nM |
| COC(=O)CCCNC(=O)c1ccc2c(c1)C(=O)c1ccc(Nc3ccc(F)cc3F)cc1CC2 | 49.7% | 60.4% | 66% | 11.6% | Non-Toxic | 3.4 nM | 3% | 68.4% | 34.9% | Activity (Blood [15]): 64%; IC50 (Blood [16]): 64 nM; inhibition at 0.01 µM (Blood [17]): 50% |
